From patent US20240300934A1, “COMPOUNDS FOR MODULATING MYCOBACTERIUM TUBERCULOSIS RESPONSE” (priority 2021, published 2024)
In brackets after ≈: the same amount, converted by molar mass.

Legend:
[1] = Mouse pharmacokinetics, single oral dose; type: in vivo, CD-1 mice; settings: female, single 25 mg/kg po dose; for Kp at 5 h: CD-1, mouse, lung vs plasma, read-out: Mouse PK Clung/Cplasma at t = 5 h; for AUC(0-t): mouse, plasma, CD-1 mice, read-out: Mouse PK AUC0-5h
Description: Blood samples were collected in K2EDTA coated tubes pre-dose, 0.5, 1, 3 and 5 hrs post-dose, placed on ice, and centrifuged to recover plasma. The recovered plasma was kept at −80° C. as needed prior to analysis, which was performed as previously described (Wang et al, 2020). In brief, a Sciex Applied Biosystems Qtrap 4000 triple-quadrupole mass spectrometer coupled to an Agilent 1260 HPLC system was used for HPLC coupled to tandem mass spectrometry (LC-MS/MS) quantitative analysis of the samples, with chromatography attained using an Agilent Zorbax SB-C8 column (2.1×30 mm; particle size, 3.5 μm) and a reverse phase gradient elution. The aqueous mobile phase consisted of Milli-Q deionized water with 0.1% formic acid (A), while the organic mobile phase was 0.1% formic acid in acetonitrile (B). The gradient set-up was as follows: 5-90% B over 2 mins, 1 min at 90% B, then an immediate drop to 5% B and an additional 1 min at 5% B. Quantification of molecules was carried out via multiple-reaction monitoring of parent/daughter transitions in electrospray positive-ionization mode, and sample analyses accepted if quality control and standard samples had concentrations within 20% of the nominal concentration. Preparation of compounds for generation of standard curves and quality control spiking solutions were performed as previously described (Wang et al, 2020). Data were processed using Analyst software (Version 1.6.2; Applied Biosystems Sciex).

[2] = Mouse liver microsomal stability; type: in vitro ADME; settings: mouse liver microsomes; read-out: MLM t1/2
Description: (§1) Assays examining mouse and human liver microsomal stability, kinetic aqueous solubility, mouse and human plasma protein binding and stability, and human cytochrome P450 inhibition characteristics of the compounds were run by BioDuro, Incorporated, using standard protocols as previously described (Wang et al, 2020). hERG inhibition assays were also performed by BioDuro, Incorporated.

[3] = test system: rv2390c′::GFP reporter Mtb strain; type: cell-based, Mycobacterium tuberculosis; settings: for rv2390c′::GFP Cl− response phenotype: compared to C6
Mtb in J774 cells = assay: Mtb growth in J774 macrophage-like cells (mKO fluorescence); type: cell-based, Mycobacterium tuberculosis; settings: for % Reduction of Intracellular Infection (J774.1 cells) at 10 μM cmpd: 10 μM compound; for Inhibition of Mtb growth in J774 cells phenotype: compared to C6
Description: For the tertiary screen of selected hit compounds in J774 murine macrophage-like cells, 30,000 J774 cells/well were seeded in bar-coded 384-well black, clear bottom plates in a 30 μl volume in J774 infection media (DMEM+10% FBS+1 mM sodium pyruvate+2 mM L-glutamine) using a ThermoFisher Multidrop Combi reagent dispenser, one day prior to assay start. On the day of the assay, log-phase Mtb constitutively expressing mKO were pelleted and resuspended in 1 ml basal uptake buffer (0.5% bovine serum albumin+25 mM dextrose+0.5 mM MgCl2+1 mM CaCl2+0.1% gelatin in phosphate buffered saline (PBS), passed 6× though a tuberculin syringe with a 25 G×5/8″ needle, then resuspended in J774 infection media to a final OD600=0.2. 10 μl of this bacterial suspension was added to each well of the 384-well plates containing the J774 cells, followed by addition of 10 μl of the appropriate compounds (pre-aliquoted in v-bottom plates in a 1:1 mix of PBS:J774 infection media). Addition of Mtb and compounds were conducted using a Janus Ministation. For each test plate, two columns of controls (16 wells each) were included, with one column consisting of treatment with DMSO as a carrier control (negative control), and the other column consisting of treatment with 5 μM rifampicin (positive control). This tertiary assay was done as a dose-response assay in duplicate runs, with compounds tested beginning at a final concentration of 20 μM and two-fold dilutions down to 0.039 μM. Plates were kept in humidified ziplock bags in a 37° C., 5% CO2 incubator. 6 days post-infection, mKO fluorescence signal was read using a PerkinElmer EnVision multimode plate reader (bottom read filter, excitation 530/8 nm, Bodipy TMR D555 single mirror, emission 579/25 nm). mKO fluorescence in DMSO-treated control samples were defined as 100% growth, and fluorescence observed in treatment conditions calculated as a percentage from that set value.
For J774 infection in 96-well plates, 180,000 J774 cells were seeded per well in 180 μl of J774 infection media one day prior to infection. On the day of the assay, log-phase Mtb constitutively expressing mKO were pelleted and resuspended in 1 ml basal uptake buffer, passed 6× though a tuberculin syringe with a 25 G×5/8″ needle, then resuspended in J774 infection media to a final OD600=0.2. Media was removed from 96-well plate containing the J774 cells, with 140 μl of fresh J774 infection media added back to each well. 40 μl of the Mtb suspension at OD600=0.2 was added to each well, followed by addition of appropriate concentration of compound or DMSO in a 20 μl final volume in J774 infection media (compound final concentration 10 μM, rifampicin final concentration 5 μM, DMSO final concentration 0.1%/well). Bacterial mKO fluorescence was read immediately after infection using a Biotek Synergy Neo2 microplate reader (bottom read monochromator, excitation 543/10 nm, emission 565/10 nm), and again 6 days post-infection. Plates were kept in humidified ziplock bags in a 37° C., 5% CO2 incubator. mKO fluorescence in DMSO-treated control samples were defined as 100% growth, and fluorescence observed in treatment conditions calculated as a percentage from that set value.

[4] = Kinetic aqueous solubility in pH 7.4 PBS; type: physicochemical; settings: PBS, pH 7.4, aqueous buffer, kinetic from dmso stock; Table 2; read-out: Kinetic Aqueous Solubility S
Description: as §1

Mtb = Mtb growth assay in cholesterol media (OD600); type: cell-based, Mycobacterium tuberculosis

Structure (SMILES) | rv2390c′::GFP Cl− response phenotype [3] | Inhibition of Mtb growth in J774 cells phenotype (Mtb in J774 cells) | further results
CCSc1ncc(CN2CCN(c3nc4ccc(Cl)cc4o3)CC2)cn1 [JSF-4467, 6-chloro-2-(4-((2-(ethylthio)pyrimidin-5-yl)methyl)piperazin-1-yl)benzo[d]oxazole] | Y | Y | Kp at 5 h [1]: 0.36; AUC(0-t) [1]: 41700 ng·h/mL; half-life [2]: 54.3 min; % Reduction of Intracellular Infection (J774.1 cells) at 10 μM cmpd (Mtb in J774 cells): 50.6 ± 2.0%; solubility kinetic [4]: 8.3 µM (≈ 3.24 µg/mL)
CSc1ncc(CN2CCN(c3nc4ccccc4o3)CC2)cn1 [JSF-4730, 2-(4-((2-(methylthio)pyrimidin-5-yl)methyl)piperazin-1-yl)benzo[d]oxazole] | Y | Y | 
CCSc1ncc(CN2CCN(c3nc4cccc(Cl)c4o3)CC2)cn1 [JSF-4603, 7-chloro-2-(4-((2-(ethylthio)pyrimidin-5-yl)methyl)piperazin-1-yl)benzo[d]oxazole] | Y | Y | 
CCSc1ncc(C(=O)N2CCN(c3nc4ccccc4o3)CC2)cn1 [JSF-4683, (4-(benzo[d]oxazol-2-yl)piperazin-1-yl)(2-(ethylthio)pyrimidin-5-yl)methanone] | N |  | 
CCSc1ncc(CN2CCN(c3nc4cc(C(F)(F)F)ccc4o3)CC2)cn1 [JSF-4526, 2-(4-((2-(ethylthio)pyrimidin-5-yl)methyl)piperazin-1-yl)-5-(trifluoromethyl)benzo[d]oxazole] | Y | Y | Kp at 5 h [1]: 0.44; AUC(0-t) [1]: 27500 ng·h/mL; half-life [2]: 32 min; % Reduction of Intracellular Infection (J774.1 cells) at 10 μM cmpd (Mtb in J774 cells): 52.4 ± 1.4%; solubility kinetic [4]: 38.6 µM (≈ 16.3 µg/mL)
CCSc1ncc(CN2CCN(c3nc4ccc(C(F)(F)F)cc4o3)CC2)cn1 [JSF-4507, 2-(4-((2-(ethylthio)pyrimidin-5-yl)methyl)piperazin-1-yl)-6-(trifluoromethyl)benzo[d]oxazole] | Y | Y | 
CCSc1ncc(CN2CCN(c3nc4cc(Cl)ccc4o3)CC2)cn1 [JSF-4477, 5-chloro-2-(4-((2-(ethylthio)pyrimidin-5-yl)methyl)piperazin-1-yl)benzo[d]oxazole] | Y |  | 
CCSc1ncc(CN2CCN(c3nc4c(Cl)cccc4o3)CC2)cn1 [JSF-4604, 4-chloro-2-(4-((2-(ethylthio)pyrimidin-5-yl)methyl)piperazin-1-yl)benzo[d]oxazole] | Y | Y | 
CCSc1ncc(CN2CCN(c3nc4cc(OC)ccc4o3)CC2)cn1 [JSF-4528, 2-(4-((2-(ethylthio)pyrimidin-5-yl)methyl)piperazin-1-yl)-5-methoxybenzo[d]oxazole] | N |  | 
CCSc1ncc(CNCCNc2nc3ccccc3o2)cn1 [JSF-4547, N^1-(benzo[d]oxazol-2-yl)-N^2-((2-(ethylthio)pyrimidin-5-yl)methyl)ethane-1,2-diamine] | N | N | 
CCSc1ncc(CN2CCN(c3nc4cccc(F)c4o3)CC2)cn1 [JSF-4516, 2-(4-((2-(ethylthio)pyrimidin-5-yl)methyl)piperazin-1-yl)-7-fluorobenzo[d]oxazole] | N | Y | 
CCSc1ncc(CN2CCN(c3nc4ccc(F)cc4o3)CC2)cn1 [JSF-4509, 2-(4-((2-(ethylthio)pyrimidin-5-yl)methyl)piperazin-1-yl)-6-fluorobenzo[d]oxazole] | Y |  | 
CCSc1ncc(CN2CCN(c3nc4c(C)cccc4o3)CC2)cn1 [JSF-4551, 2-(4-((2-(ethylthio)pyrimidin-5-yl)methyl)piperazin-1-yl)-4-methylbenzo[d]oxazole] | Y | Y | 
CCSc1ncc(CN2CCN(c3nc4ccccc4s3)CC2)cn1 [JSF-4298, 2-(4-((2-(ethylthio)pyrimidin-5-yl)methyl)piperazin-1-yl)benzo[d]thiazole] | Y |  | rv2390c′::GFP reporter signal upon Mtb exposure to high [Cl−] (in words) ([3]; 10 μM, 250 mM NaCl): continuing to demonstrate the phenotypes seen with the parental C6 compound; Mtb growth in J774 cells (in words) (Mtb in J774 cells; 10 μM, 6 days post-infection): continuing to demonstrate the phenotypes seen with the parental C6 compound; Mtb growth in cholesterol media (in words) (Mtb; 10 μM, OD600): continuing to demonstrate the phenotypes seen with the parental C6 compound; Growth inhibition in cholesterol media phenotype (Mtb; compared to C6): Y
CCSc1ncc(CN2CCN(c3nc4cc(C)ccc4o3)CC2)cn1 [JSF-4471, 2-(4-((2-(ethylthio)pyrimidin-5-yl)methyl)piperazin-1-yl)-5-methylbenzo[d]oxazole] | Y | Y | 
CCSc1ncc(CN2CCN(c3nc4c(F)cccc4o3)CC2)cn1 [JSF-4602, 2-(4-((2-(ethylthio)pyrimidin-5-yl)methyl)piperazin-1-yl)-4-fluorobenzo[d]oxazole] | Y | Y | 
CCSc1ncc(CN2CCN(c3nc4ccc(C)cc4o3)CC2)cn1 [JSF-4527, 2-(4-((2-(ethylthio)pyrimidin-5-yl)methyl)piperazin-1-yl)-6-methylbenzo[d]oxazole] | Y | Y | Kp at 5 h [1]: 0.55; AUC(0-t) [1]: 16300 ng·h/mL; half-life [2]: 38.7 min; % Reduction of Intracellular Infection (J774.1 cells) at 10 μM cmpd (Mtb in J774 cells): 53.8 ± 2.1%; solubility kinetic [4]: 13.7 µM (≈ 5.06 µg/mL)
CCSc1ncc(CN2CCN(c3ncco3)CC2)cn1 [JSF-4747, 2-(4-((2-(ethylthio)pyrimidin-5-yl)methyl)piperazin-1-yl)oxazole] | Y |  | 
CCSc1ncc(CN2CCN(c3nc4cccc(C(F)(F)F)c4o3)CC2)cn1 [JSF-4601, 2-(4-((2-(ethylthio)pyrimidin-5-yl)methyl)piperazin-1-yl)-7-(trifluoromethyl)benzo[d]oxazole] | Y |  | 
CCSc1ncc(CN2CCN(c3nc4cccc(C)c4o3)CC2)cn1 [JSF-4562, 2-(4-((2-(ethylthio)pyrimidin-5-yl)methyl)piperazin-1-yl)-7-methylbenzo[d]oxazole] | Y | Y | 
